Measurements published in paper PMC6257796, “Effects of Eupatilin and Jaceosidin on Cytochrome P450 Enzyme Activities in Human Liver Microsomes” (Molecules, 2010).

Key:
Assay type in all cases: in vitro ADME
[1] = target: T1, CYP1A2 (Homo sapiens, UniProt P05177); assay: Cocktail probe assay in pooled human liver microsomes: phenacetin O-deethylation (IC50); conditions: 50 μM phenacetin
T1 construct: pooled human liver microsomes (0.25 mg/mL); tissue BD Gentest Co. H161; host or cells: pooled human liver microsomes
T1 sequence (P05177 1-516): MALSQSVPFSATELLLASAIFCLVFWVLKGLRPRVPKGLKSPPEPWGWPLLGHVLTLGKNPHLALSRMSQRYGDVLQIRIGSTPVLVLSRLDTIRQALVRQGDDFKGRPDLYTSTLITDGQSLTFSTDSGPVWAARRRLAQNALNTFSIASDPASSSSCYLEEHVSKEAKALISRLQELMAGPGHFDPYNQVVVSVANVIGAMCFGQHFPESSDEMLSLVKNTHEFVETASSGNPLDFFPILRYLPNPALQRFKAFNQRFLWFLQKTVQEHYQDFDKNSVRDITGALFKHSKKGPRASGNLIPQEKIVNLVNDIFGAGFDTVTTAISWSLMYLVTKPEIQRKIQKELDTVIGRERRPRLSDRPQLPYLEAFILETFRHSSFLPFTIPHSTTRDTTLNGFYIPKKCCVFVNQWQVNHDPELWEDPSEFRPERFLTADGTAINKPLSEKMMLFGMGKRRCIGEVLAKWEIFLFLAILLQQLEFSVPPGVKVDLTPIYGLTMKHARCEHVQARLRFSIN
Method: (§1) The inhibitory potencies (IC50 values) of eupatilin and jaceosidin were determined with CYP assays in the presence and absence of eupatilin and jaceosidin (final concentrations of 0.1−100 μM with acetonitrile concentration of less than 0.5% v/v) using pooled human liver microsomes. Phenacetin O-deethylase, coumarin 7-hydroxylase, amodiaquine N-deethylase, diclofenac hydroxylase, [S]-mephenytoin 4'-hydroxylase, bufuralol 1'-hydroxylase, and midazolam 1'-hydroxylase activities were determined as probe activities for CYP1A2, CYP2A6, CYP2C8, CYP2C9, CYP2C19, CYP2D6, and CYP3A, respectively, using cocktail incubation and tandem mass spectrometry. The incubation mixtures were prepared in a total volume of 200 μL as follows: pooled human liver microsomes (0.25 mg/mL), 1.3 mM NADPH, 3.3 mM MgCl2, 50 mM potassium phosphate buffer (pH 7.4), and a cocktail of probe substrates and various concentrations of eupatilin or jaceosidin (0.1−100 μM). […] After a 3 min preincubation at 37 °C, the reactions were initiated by adding NADPH and incubated for 20 min at 37 °C with shaking in a water bath. After incubation, the reaction was stopped by placing the tubes on ice and adding 100 μL of ice-cold acetonitrile containing internal standards (0.5 μg/mL [^13C,^15N]-acetaminophen for acetaminophen and N-desethylamodiaquine, 0.5 μg/mL [^2H5]-7-hydroxycoumarin for 7-hydroxycoumarin, 2.0 μg/mL [^13C6]-4-hydoxydiclofenac for 4-hydoxydiclofenac, 0.5 μg/mL [^2H3]-4'-hydoxymephenytoin for 4-hydoxymephenytoin and 1'-hydroxymidazolam, and 0.5 μg/mL [^2H7]-1'-hydroxybufuralol for 1'-hydroxybufuralol). The incubation mixtures were then centrifuged at 10,000× g for 5 min. All incubations were performedin triplicate.
(§2) To evaluate the effect of preincubation on inhibitory potency, eupatilin and jaceosidin (0.1−100 μM) were preincubated for 30 min with NADPH, buffer, and microsomes before the addition of the CYP probe substrates. The reaction was started by addition of the cocktail of probe substrates.
(§3) All seven metabolites produced from the cocktail of CYP isoform-specific substrates were simultaneously determined by LC/MS/MS. The system consisted of a tandem quadrupole mass spectrometer (TSQ Quantum Access, ThermoFisher Scientific, CA, USA) coupled with a Nanospace SI-2 LC system. The separation was performed on an Atlantis dC18 column (5 μm, 2.1 mm i.d. × 100 mm, Waters, Waltham, MA, USA) using the gradient elution of a mixture of 5% methanol in 0.1% formic acid (mobile phase A) and 95% methanol in 0.1% formic acid (mobile phase B) at a flow rate of 0.25 mL/min: 10% mobile phase B for 1 min, 10% to 95% mobile phase B for 1 min, 95% mobile phase B for 5 min. […] Quantification was performed by selected reaction monitoring (SRM) of the [M+H]^+ ion and the related product ion for each metabolite. […]

[2] = target: T2, CYP2C9 (Homo sapiens, UniProt P11712); assay: Kinetic analysis (Ki, inhibition type) in human liver microsomes: diclofenac 4-hydroxylation; conditions: pooled human liver microsomes; for Inhibition type, diclofenac 4-hydroxylation (CYP2C9): Lineweaver, Dixon and secondary reciprocal plots
T2 construct: pooled human liver microsomes (0.25 mg/mL); tissue BD Gentest Co. H161; host or cells: pooled human liver microsomes
T2 sequence (P11712 whole entry): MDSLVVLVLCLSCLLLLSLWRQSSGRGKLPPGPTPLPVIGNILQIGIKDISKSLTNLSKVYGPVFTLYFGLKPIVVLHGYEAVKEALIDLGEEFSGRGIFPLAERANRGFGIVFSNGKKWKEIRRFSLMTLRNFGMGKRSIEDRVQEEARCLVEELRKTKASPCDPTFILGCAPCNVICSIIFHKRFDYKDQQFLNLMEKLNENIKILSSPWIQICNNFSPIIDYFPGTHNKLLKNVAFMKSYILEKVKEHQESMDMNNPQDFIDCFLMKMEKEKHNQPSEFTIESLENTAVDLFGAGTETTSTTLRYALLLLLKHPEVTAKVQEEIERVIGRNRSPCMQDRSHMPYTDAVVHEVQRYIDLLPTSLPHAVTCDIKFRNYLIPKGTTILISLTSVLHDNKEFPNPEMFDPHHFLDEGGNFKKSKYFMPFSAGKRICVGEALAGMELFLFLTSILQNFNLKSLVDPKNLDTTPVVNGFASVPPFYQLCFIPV
Method: (§4) The Ki values and inhibition types (competitive, noncompetitive, uncompetitive, or mixed) were determined for eupatilin and jaceosidin using Lineweaver plots, Dixon plots, and secondary reciprocal plots.
(§5) The reactions were initiated by addition of NADPH at 37 °C and stopped after 15 min by placing the incubation tubes on ice and adding 100 μL of ice-cold methanol containing an internal standard. The incubation mixtures were centrifuged at 10,000' g for 5 min, and aliquots (5 μL) of the supernatants were analyzed by liquid chromatography/tandem mass spectrometry (LC/MS/MS).
(§6) All seven metabolites produced from the cocktail of CYP isoform-specific substrates were simultaneously determined by LC/MS/MS. The system consisted of a tandem quadrupole mass spectrometer (TSQ Quantum Access, ThermoFisher Scientific, CA, USA) coupled with a Nanospace SI-2 LC system. The separation was performed on an Atlantis dC18 column (5 μm, 2.1 mm i.d. × 100 mm, Waters, Waltham, MA, USA) using the gradient elution of a mixture of 5% methanol in 0.1% formic acid (mobile phase A) and 95% methanol in 0.1% formic acid (mobile phase B) at a flow rate of 0.25 mL/min: 10% mobile phase B for 1 min, 10% to 95% mobile phase B for 1 min, 95% mobile phase B for 5 min. The column and autosampler temperatures were 50 °C and 4 °C, respectively. After 1.5 min, the LC eluant was diverted from waste to the mass spectrometer that was fitted with an electrospray ionization (ESI) source and operated in the positive ion mode. The ESI source settings for the ionization of the metabolites were as follows: electrospray voltage, 5.0 kV; vaporizer temperature, 420 °C; capillary temperature 360 °C; sheath gas pressure, 35 psi; auxiliary gas pressure, 10 psi. Quantification was performed by selected reaction monitoring (SRM) of the [M+H]^+ ion and the related product ion for each metabolite. The analytical data were processed using Xcalibur® software (ThermoFisher Scientific).
(§7) The IC50 values (concentration of inhibitor causing 50% inhibition of the original enzyme activity) were calculated using WinNonlin software, a non-linear regression analysis program (Pharsight, Mountain View, CA, USA). The apparent kinetic parameters for inhibitory potential (Ki values) were estimated from the fitted curves using Enzyme Kinetics Ver. 1.3 program (Systat Software Inc., San Jose, CA, USA).

[3] = target: T3, CYP2D6 (Homo sapiens, UniProt P10635); assay: Cocktail probe assay in pooled human liver microsomes: bufuralol 1'-hydroxylation (IC50); conditions: 5.0 μM bufuralol
T3 construct: pooled human liver microsomes (0.25 mg/mL); tissue BD Gentest Co. H161; host or cells: pooled human liver microsomes
T3 sequence (P10635 whole entry): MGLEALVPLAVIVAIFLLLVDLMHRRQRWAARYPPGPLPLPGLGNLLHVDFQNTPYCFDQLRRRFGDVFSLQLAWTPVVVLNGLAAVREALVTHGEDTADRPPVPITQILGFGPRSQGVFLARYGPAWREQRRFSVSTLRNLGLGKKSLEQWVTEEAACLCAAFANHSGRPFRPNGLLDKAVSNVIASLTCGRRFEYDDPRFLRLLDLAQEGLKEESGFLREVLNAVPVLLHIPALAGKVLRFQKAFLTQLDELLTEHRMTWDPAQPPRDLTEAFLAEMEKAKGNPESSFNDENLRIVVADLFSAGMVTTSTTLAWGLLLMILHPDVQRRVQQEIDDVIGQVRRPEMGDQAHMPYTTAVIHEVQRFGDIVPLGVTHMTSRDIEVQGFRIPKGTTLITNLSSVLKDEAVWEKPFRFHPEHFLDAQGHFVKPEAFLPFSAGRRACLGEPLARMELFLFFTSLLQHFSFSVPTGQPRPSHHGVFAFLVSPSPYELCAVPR
Method: as §1, §2, §3

[4] = target: T2, CYP2C9; assay: Cocktail probe assay in pooled human liver microsomes: diclofenac 4-hydroxylation (IC50); conditions: 10 μM diclofenac
Method: as §1, §2, §3

[5] = target: T4, CYP2C19 (Homo sapiens, UniProt P33261); assay: Cocktail probe assay in pooled human liver microsomes: [S]-mephenytoin 4'-hydroxylation (IC50); conditions: 50 μM [S]-mephenytoin
T4 construct: pooled human liver microsomes (0.25 mg/mL); tissue BD Gentest Co. H161; host or cells: pooled human liver microsomes
T4 sequence (P33261 whole entry): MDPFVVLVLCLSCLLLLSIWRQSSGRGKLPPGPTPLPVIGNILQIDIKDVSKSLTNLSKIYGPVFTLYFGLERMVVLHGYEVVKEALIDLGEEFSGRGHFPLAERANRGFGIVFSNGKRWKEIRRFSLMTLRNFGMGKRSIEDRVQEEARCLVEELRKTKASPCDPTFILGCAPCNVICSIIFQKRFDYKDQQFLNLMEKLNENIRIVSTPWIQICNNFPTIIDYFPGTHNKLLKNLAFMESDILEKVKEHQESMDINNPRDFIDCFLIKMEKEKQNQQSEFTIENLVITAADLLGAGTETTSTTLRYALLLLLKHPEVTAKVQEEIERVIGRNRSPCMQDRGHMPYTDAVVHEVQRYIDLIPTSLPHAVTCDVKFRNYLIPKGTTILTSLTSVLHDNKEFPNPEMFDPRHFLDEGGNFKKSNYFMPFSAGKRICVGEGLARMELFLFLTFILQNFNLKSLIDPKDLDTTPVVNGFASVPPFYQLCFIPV
Method: as §1, §2, §3

[6] = target: T5, CYP2C8 (Homo sapiens, UniProt P10632); assay: Kinetic analysis (Ki, inhibition type) in human liver microsomes: amodiaquine N-deethylation; conditions: pooled human liver microsomes
T5 construct: pooled human liver microsomes (0.25 mg/mL); tissue BD Gentest Co. H161; host or cells: pooled human liver microsomes
T5 sequence (P10632 1-490): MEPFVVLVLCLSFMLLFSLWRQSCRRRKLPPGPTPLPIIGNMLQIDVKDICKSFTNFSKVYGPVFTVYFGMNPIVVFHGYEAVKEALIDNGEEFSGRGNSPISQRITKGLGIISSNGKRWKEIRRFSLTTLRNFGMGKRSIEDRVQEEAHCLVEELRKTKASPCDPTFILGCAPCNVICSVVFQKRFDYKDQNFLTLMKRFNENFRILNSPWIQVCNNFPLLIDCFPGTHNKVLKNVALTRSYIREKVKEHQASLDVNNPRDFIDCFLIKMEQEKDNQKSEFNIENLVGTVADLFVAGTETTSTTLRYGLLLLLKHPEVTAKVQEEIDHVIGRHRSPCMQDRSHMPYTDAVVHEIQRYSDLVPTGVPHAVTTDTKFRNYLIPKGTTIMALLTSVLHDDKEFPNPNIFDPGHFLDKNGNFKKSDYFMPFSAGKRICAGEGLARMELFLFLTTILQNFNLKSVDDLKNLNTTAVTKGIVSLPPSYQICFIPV
Method: as §4, §5, §6, §7

[7] = target: T1, CYP1A2; assay: Kinetic analysis (Ki, inhibition type) in human liver microsomes: phenacetin O-deethylation; conditions: pooled human liver microsomes
Method: as §4, §5, §6, §7

[8] = test system: CYP3A; assay: Cocktail probe assay in pooled human liver microsomes: midazolam 1'-hydroxylation (IC50); conditions: for IC50, midazolam 1'-hydroxylation (CYP3A): pooled human liver microsomes, 2.5 μM midazolam
Method: as §1, §2, §6, §7

[9] = target: T5, CYP2C8; assay: Cocktail probe assay in pooled human liver microsomes: amodiaquine N-deethylation (IC50); conditions: 2.0 μM amodiaquine, no preincubation
Method: as §1, with “After incubation, the reaction was stopped by placing the tubes on ice and adding 100 μL of ice-cold acetonitrile containing internal standards (0.5 μg/mL [^13C,^15N]-acetaminophen for acetaminophen and N-desethylamodiaquine, 0.5 μg/mL [^2H5]-7-hydroxycoumarin for 7-hydroxycoumarin, 2.0 μg/mL [^13C6]-4-hydoxydiclofenac for 4-hydoxydiclofenac, 0.5 μg/mL [^2H3]-4'-hydoxymephenytoin for 4-hydoxymephenytoin and 1'-hydroxymidazolam, and 0.5 μg/mL [^2H7]-1'-hydroxybufuralol for 1'-hydroxybufuralol). The incubation mixtures were then centrifuged at 10,000× g for 5 min. All incubations were performedin triplicate.” left out
All seven metabolites produced from the cocktail of CYP isoform-specific substrates were simultaneously determined by LC/MS/MS. […] Quantification was performed by selected reaction monitoring (SRM) of the [M+H]^+ ion and the related product ion for each metabolite. […]

[10] = target: T4, CYP2C19; assay: Kinetic analysis (Ki, inhibition type) in human liver microsomes: [S]-mephenytoin 4'-hydroxylation; conditions: pooled human liver microsomes; for Inhibition type, S-mephenytoin 4'-hydroxylation (CYP2C19): Lineweaver, Dixon and secondary reciprocal plots
Method: as §4, §5, §6, §7

[11] = target: T3, CYP2D6; assay: Kinetic analysis (Ki, inhibition type) in human liver microsomes: bufuralol 1'-hydroxylation; conditions: pooled human liver microsomes
Method: as §4, §5, §6, §7

[12] = target: T6, CYP2A6 (Homo sapiens, UniProt P11509); assay: Cocktail probe assay in pooled human liver microsomes: coumarin 7-hydroxylation (IC50); conditions: for IC50, coumarin 7-hydroxylation (CYP2A6): pooled human liver microsomes, 2.5 μM coumarin
T6 construct: pooled human liver microsomes (0.25 mg/mL); tissue BD Gentest Co. H161; host or cells: pooled human liver microsomes
T6 sequence (P11509 1-494): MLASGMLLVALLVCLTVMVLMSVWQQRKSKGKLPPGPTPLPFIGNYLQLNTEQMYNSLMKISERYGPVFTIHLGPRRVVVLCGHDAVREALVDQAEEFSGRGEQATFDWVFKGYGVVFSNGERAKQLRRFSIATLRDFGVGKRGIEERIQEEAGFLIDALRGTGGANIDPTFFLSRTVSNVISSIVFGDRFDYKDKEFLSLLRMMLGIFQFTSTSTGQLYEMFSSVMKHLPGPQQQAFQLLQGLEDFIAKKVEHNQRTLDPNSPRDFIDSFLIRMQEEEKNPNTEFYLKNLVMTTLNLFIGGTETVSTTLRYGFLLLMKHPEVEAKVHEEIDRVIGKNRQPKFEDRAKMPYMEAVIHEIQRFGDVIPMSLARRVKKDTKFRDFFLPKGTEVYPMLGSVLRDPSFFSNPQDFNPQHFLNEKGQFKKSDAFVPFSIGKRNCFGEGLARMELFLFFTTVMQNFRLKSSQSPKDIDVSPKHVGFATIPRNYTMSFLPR
Method: as §1, §2, §6, §7

[13] = with 30 min preincubation in presence of NADPH
[14] = Lineweaver, Dixon and secondary reciprocal plots

COc1cc(-c2cc(=O)c3c(O)c(OC)c(O)cc3o2)ccc1O [jaceosidin, 5,7-dihydroxy-2-(4-hydroxy-3-methoxyphenyl)-6-methoxychromen-4-one]
IC50 ([1]; no preincubation): 5.3 ± 0.81 µM
IC50 [1, 13]: 6 ± 0.45 µM
Ki ([2]; 1-50 μM diclofenac): 6.4 ± 0.25 µM
Inhibition type, diclofenac 4-hydroxylation (CYP2C9) [2]: competitive
Inhibition type, diclofenac 4-hydroxylation (CYP2C9) ([2]; listed as Jaceosidin): competitive
IC50 ([3]; no preincubation): 79.1 ± 1.8 µM
IC50 [3, 13]: 82.3 ± 2.4 µM
IC50 ([4]; no preincubation): 10.2 ± 1 µM
IC50 [4, 13]: 8.6 ± 0.91 µM
IC50 ([5]; no preincubation): 64.9 ± 4.8 µM
IC50 [5, 13]: 69.8 ± 3.8 µM
Ki ([6]; 0.5-5 μM amodiaquine): 109 ± 7.3 µM
Inhibition type, amodiaquine N-deethylation (CYP2C8) [6, 14]: competitive
Ki ([7]; 10-100 μM phenacetin): 3.8 ± 0.23 µM
Inhibition type, phenacetin O-deethylation (CYP1A2) [7, 14]: competitive
Inhibition of CYP3A4-catalyzed midazolam 1'-hydroxylation at the highest concentration tested ([8]; 100 μM, human liver microsomes): negligible inhibition
IC50, midazolam 1'-hydroxylation (CYP3A) ([8]; no preincubation): No inhibition
IC50, midazolam 1'-hydroxylation (CYP3A) [8, 13]: No inhibition
IC50 [9]: > 100 µM
Ki ([10]; 10-100 μM [S]-mephenytoin): 45.1 ± 4.2 µM
Inhibition type, S-mephenytoin 4'-hydroxylation (CYP2C19) [10]: mixed
Inhibition type, S-mephenytoin 4'-hydroxylation (CYP2C19) ([10]; listed as Jaceosidin): mixed type
Ki ([11]; 0.5-5 μM bufuralol): 57.8 ± 3.6 µM
Inhibition type, bufuralol 1'-hydroxylation (CYP2D6) [11, 14]: competitive
Inhibition of CYP2A6-catalyzed coumarin 7-hydroxylation at the highest concentration tested ([12]; 100 μM, human liver microsomes): negligible inhibition
IC50, coumarin 7-hydroxylation (CYP2A6) ([12]; no preincubation): No inhibition
IC50, coumarin 7-hydroxylation (CYP2A6) [12, 13]: No inhibition
